Results taken from patent US9167822B2, “Antifungal compositions” (DSM IP ASSETS B.V., priority 2012, dated 2015).

Test system: Botrytis cinerea
Experiment: In vitro antifungal activity, 96-well microtiter plates
Format: cell-based
Conditions: 25° C., day 3, 1.25 ppm natamycin, 6.25 ppm isopyrazam or both
Method: Subsequently, 100 μl of a Botrytis cinerea suspension prepared in PCB medium was used to inoculated each well with 2.5×10^3 spores/ml. […] After incubation of the microtiter plates at 25° C., the in vitro antifungal activity (%) of the individual active ingredients was assessed by calculating the reduction in mould growth observed in the presence of the active ingredient in comparison to the mould growth observed in the absence of the active ingredient. The expected antifungal activity (E in %) of the active ingredient combination was calculated according to the Colby equation (Colby, 1967): […]

With C[C@@H]1C/C=C/C=C/C=C/C=C/[C@H](O[C@@H]2O[C@H](C)[C@@H](O)[C@H](N)[C@@H]2O)C[C@@H]2O[C@](O)(C[C@@H](O)C[C@H]3O[C@@H]3/C=C/C(=O)O1)C[C@H](O)[C@H]2C(=O)O [Natamycin, natamycin] the “Observed antifungal activity O (%)” value was 0%.
